Where two headings read alike, the source gives them in different places.
Experiments:
BRD4 BD1 = BRD4 BD1 (Homo sapiens (Human), UniProt O60885); experiment: NanoBRET bromodomain assay, NanoLuc-BRD4-BD1 fusion in HEK293 cells; type: cell-based; settings: top concentration 10 μM
[1] = Intrinsic clearance in liver microsomes, rat; type: in vitro ADME; settings: rat, liver microsomes, pH 7.4, rat liver microsomes, read-out: Half-Life (T1/2) (min), Rat
Experimental: From stock solution of compound on 10 mM DMSO, a working solution of 0.1 mM is prepared by diluting the compound in DMSO. 6.25 μL of a 20 mg/mL solution of microsomes in PBS pH 7.4 buffer is added to 216.25 μL PBS pH 7.4 buffer (final microsome concentration—0.5 mg/mL). 25 μL of 10 mM solution of NADPH in PBS pH 7.4 buffer is added to the incubations (final NADPH concentration—1 mM). The mixture is pre-warmed to 37° C. for 10 minutes. 2.5 μL of test compound working solution is added (final compound concentration—1 μM with 1% DMSO). Aliquots of 30 μL are taken from the reaction solution at 0.5, 5, 15, 30 and 60 minutes. The reaction was stopped by the addition of 5 volumes of cold acetonitrile with IS (100 nM alprazolam, 200 nM caffeine and 100 nM tolbutamide). Samples were centrifuged at 3, 220 g for 40 minutes. Aliquots of 100 μL of the supernatant are mixed with 100 μL of ultra-pure H2O and used for LC-MS/MS analysis. The percent compound remaining at each time point is calculated with respect to that of the 0.5 min sample. The data are analysed to calculate half-life. Control experiments are run without NADPH and blank samples are prepared using DMSO without the test compound.
A 50 mM stock solution (in DMSO) is prepared for the compound. From the stock solution, a working solution of 0.5 mM is prepared by diluting the compound in DMSO. This concentration of working solution is prepared considering a final concentration of 1 uM with 0.1% DMSO. The compound (1 μL of working solution) is spiked in PBS with pH 7.4 ([…]) at a concentration of 1 μM. Subsequently, 110 μL of 10 mM NADPH is added (as a co-factor). The sample is incubated at 37° C. for 15 min. Following this, pre-warmed liver microsomes (27.5 μL; final protein conc. 0.5 mg/mL) are added. The samples are then incubated at 37° C. Aliquots of samples are withdrawn at 0, 5, 15, 30, 45 and 60 min. The reaction is stopped by using chilled acetonitrile containing internal standard. The samples are centrifuged, and the supernatants analysed by LC-MS/MS. The percent compound remaining at each time point is calculated with respect to that of the 0 min sample. The data are then analysed to calculate half-life and intrinsic clearance (CLint). Control experiments are run without NADPH and blank samples are prepared using DMSO without the test compound.

BRD4 BD2 = BRD4 BD2 (Homo sapiens (Human), UniProt O60885); experiment: NanoBRET bromodomain assay, NanoLuc-BRD4-BD2 fusion in HEK293 cells; settings: for IC50: BRD4 BD2 (IC50), NanoBRET, HEK293 cells, top concentration 10 μM; for Fold selectivity: IC50 for BRD4 BD1 divided by IC50 for BRD4 BD2, qualitative if an IC50 is at the upper limit;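 on all read-outs here: tracer displacement BRET read in transfected cells after 2 h compound exposure at 37 °C, signal in milliBRET units corrected against no-tracer background wells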
[2] = Sprague-Dawley rat pharmacokinetics, IV and PO cassette dosing; type: in vivo; settings: Method 1; for IV T1/2: IV 1 mg/kg; for PO F: PO 5 mg/kg
Experimental: Compounds were formulated in 5% DMSO, 40% PEG-400, 55% Milli-Q water at a concentration of 0.2 mg/mL for IV and at 0.5 mg/mL for PO. Two male Sprague-Dawley rats per arm were dosed with up to 5 compounds in cassette mode, which each compound being dosed at 1 mg/kg IV and 5 mg/kg PO. Blood was sampled at various timepoints and plasma isolated. 50 μL of plasma with 5 μL of blank Sprague-Dawley rat plasma were added to 200 μL of acetonitrile containing IS mixture. The samples were vortexed for 30 s. After centrifugation at 4 degrees Celsius, 3900 rpm for 15 min, the supernatant was diluted 3 times with water. 20 μL of diluted supernatant was injected into the LC/MS/MS system for quantitative analysis and concentration of analyte determined by comparison with matrix matched standard curve. WinNonlin (Phoenix™, version 8.3) or other similar software may be used for pharmacokinetic calculations.

[3] = Plasma stability assay, rat plasma; type: in vitro ADME; settings: Method 2 (10 μM)
Experimental: From stock solution of compound in 10 mM DMSO, a working solution of 1 mM is prepared by diluting the compound in DMSO. To 398 μL of plasma pre-warmed at 37° C. for 15 minutes), 2 μL of working solution of compound is added, resulting in a final concentration of 5 μM (0.5% DMSO) for the compound. The sample is then incubated at 37° C. Aliquot is withdrawn at specified time-points (0, 15, 30, 60 and 120 mins). The reaction is stopped by addition of 450 μL cold acetonitrile containing internal standard (IS). […] Aliquots of the supernatant is analysed using LC-MS/MS. The percent remaining of the compound at each time point is calculated with respect to the control sample (0 min time-point).
A working solution of compound (500 μM) is prepared in DMSO (100%). To 735 μL of plasma, 15 μL of working solution of compound is added—resulting in a final concentration of 10 μM (2% DMSO) for the compound. The sample is then incubated at 37° C. Aliquot is withdrawn at time-points—0, 15, 30, 60, 90 and 120 mins. The reaction is stopped by using chilled acetonitrile containing internal standard (IS). The samples are centrifuged and the supernatants analyzed using LC-MS/MS. The percent remaining of the compound at each time point is calculated with respect to the control sample (0 min time-point).

Row | Compound | IC50 (BRD4 BD1) [nM] | half-life at 1 μM ([1]; Method 1) [min] | IC50 (BRD4 BD2) [nM] | Fold selectivity (BRD4 BD2) | IV T1/2 [2] [h] | PO F [2] [%] | Plasma Stability (% remaining at 120 minutes), Rat [3] [%] | half-life at 1 μM ([1]; Method 2) [min]
1 | CCNC(=O)c1cc(OC(C)c2ccccc2F)c(C(=O)NC)[nH]1 (single isomer, unassigned) [Example 20, N^5-ethyl-3-(1-(2-fluorophenyl)ethoxy)-N^2-methyl-1H-pyrrole-2,5-dicarboxamide] | ≥ 10000 |  | 50 to 200 | XX (Fold >50 and ≤200) | 0.4 | 46 |  | 
2 | CNC(=O)c1[nH]c(C(=O)NC2COC2)cc1OC(C)c1ccccc1F (single isomer, unassigned) [Example 47, 3-(1-(2-fluorophenyl)ethoxy)-N^2-methyl-N^5-(oxetan-3-yl)-1H-pyrrole-2,5-dicarboxamide] | ≥ 10000 |  | 50 to 200 | XX (Fold >50 and ≤200) |  |  | 76 | > 60
3 | CCNC(=O)c1cc(OC(C)c2c(F)cccc2F)c(C(=O)NC)[nH]1 (single isomer, unassigned) [Example 55, 3-(1-(2,6-difluorophenyl)ethoxy)-N^5-ethyl-N^2-methyl-1H-pyrrole-2,5-dicarboxamide] |  |  |  | — (Fold ≥0 and ≤2) |  |  | 88 | > 60
4 | CCNC(=O)c1cc(OC(c2ccccc2)c2ccccc2)c(C(=O)NC)[nH]1 [Example 53, 3-(benzhydryloxy)-N^5-ethyl-N^2-methyl-1H-pyrrole-2,5-dicarboxamide] | ≥ 10000 |  | 50 to 200 | XX (Fold >50 and ≤200) |  |  | 91 | > 60
5 | CNC(=O)c1[nH]c(C(=O)NCC(F)(F)F)cc1O[C@@H](C)c1ccccc1 [Example 54, (S)—N^2-methyl-3-(1-phenylethoxy)-N^5-(2,2,2-trifluoroethyl)-1H-pyrrole-2,5-dicarboxamide] | ≥ 10000 |  | 50 to 200 | XX (Fold >50 and ≤200) |  |  | 93 | > 60
6 | CCNC(=O)c1[nH]c(C(=O)NC)c(O[C@@H](C)c2ccccc2F)c1Br [Example 72, (S)-3-bromo-N^2-ethyl-4-(1-(2-fluorophenyl)ethoxy)-N^5-methyl-1H-pyrrole-2,5-dicarboxamide] |  |  | > 10000 | — (Fold ≥0 and ≤2) |  |  | 9 | 13

The remaining lines, values ahead:

Row | IC50 (BRD4 BD1) [nM] | half-life at 1 μM ([1]; Method 1) [min] | IC50 (BRD4 BD2) [nM] | Fold selectivity (BRD4 BD2) | IV T1/2 [2] [h] | PO F [2] [%] | Plasma Stability (% remaining at 120 minutes), Rat [3] [%] | half-life at 1 μM ([1]; Method 2) [min] | Compound
7 | ≥ 10000 | > 60 | 200 to 1000 | X (Fold >2 and ≤50) |  |  |  |  | CCNC(=O)c1cc(OC(C)c2ccccc2)c(C(=O)NC)[nH]1 (racemic) [Example 95, N^5-ethyl-N^2-methyl-3-(1-phenylethoxy)-1H-pyrrole-2,5-dicarboxamide]
8 |  | > 60 |  | XX (Fold >50 and ≤200) |  |  | 89 |  | CNC(=O)c1[nH]c(C(=O)NC2CCC(O)CC2)cc1OC(C)c1ccc(Cl)cc1 (single isomer, unassigned) [Example 29, 3-(1-(4-chlorophenyl)ethoxy)-N^5-(4-hydroxycyclohexyl)-N^2-methyl-1H-pyrrole-2,5-dicarboxamide]
9 | ≥ 10000 | > 60 | 50 to 200 | XX (Fold >50 and ≤200) | 1.4 | 66 |  |  | CNC(=O)c1[nH]c(C(=O)N[C@H]2CC[C@H](O)CC2)cc1OC(C)c1ccc(Cl)cc1F (single isomer, unassigned) [Example 38, 3-(1-(4-chloro-2-fluorophenyl)ethoxy)-N^5-(trans-4-hydroxycyclohexyl)-N^2-methyl-1H-pyrrole-2,5-dicarboxamide]
10 | ≥ 10000 | > 60 | 200 to 1000 | X (Fold >2 and ≤50) | 0.3 | 69 |  |  | CCNC(=O)c1cc(OC(C)c2ccc(Cl)cc2F)c(C(=O)NC)[nH]1 (single isomer, unassigned) [Example 41, 3-(1-(4-chloro-2-fluorophenyl)ethoxy)-N^5-ethyl-N^2-methyl-1H-pyrrole-2,5-dicarboxamide]
11 | ≥ 10000 |  | 50 to 200 | XX (Fold >50 and ≤200) | 0.5 | 58 | 20 |  | CNC(=O)c1[nH]c(C(=O)NC2CCC2)cc1OC(C)c1ccccc1F (single isomer, unassigned) [Example 43, N^5-cyclobutyl-3-(1-(2-fluorophenyl)ethoxy)-N^2-methyl-1H-pyrrole-2,5-dicarboxamide]
12 |  |  |  | XX (Fold >50 and ≤200) |  |  | 88 | > 60 | CNC(=O)c1[nH]c(C(=O)N[C@H]2CC[C@H](O)CC2)cc1OC(C)c1ccccc1F (single isomer, unassigned) [Example 45]
13 | ≥ 10000 |  | < 50 | XXX (Fold >200) |  |  | 90 | > 60 | CCNC(=O)c1cc(OC(C)c2ccc(Br)cc2)c(C(=O)NC)[nH]1 (single isomer, unassigned) [Example 49, 3-(1-(4-bromophenyl)ethoxy)-N^5-ethyl-N^2-methyl-1H-pyrrole-2,5-dicarboxamide]
14 | ≥ 10000 |  | < 50 | XXX (Fold >200) |  |  | 93 | > 60 | CCNC(=O)c1cc(OC(C)c2ccc(I)cc2)c(C(=O)NC)[nH]1 (single isomer, unassigned) [Example 51, N^5-ethyl-3-(1-(4-iodophenyl)ethoxy)-N^2-methyl-1H-pyrrole-2,5-dicarboxamide]
15 | ≥ 10000 |  | 50 to 200 | XX (Fold >50 and ≤200) |  |  | 81 | > 60 | CNC(=O)c1[nH]c(C(=O)NC(C)C)cc1O[C@@H](C)c1ccc(Cl)cc1 [Example 61, (S)-3-(1-(4-chlorophenyl)ethoxy)-N^5-isopropyl-N^2-methyl-1H-pyrrole-2,5-dicarboxamide]

From patent publication US20250263370A1 (Tay Therapeutics Limited, priority 2022, published 2025)
